Measured values reported in patent US7842324B2 (Senomyx, Inc., priority 2005, dated 2010).

target: T1, hT1R2/hT1R3 sweet receptor expressed in HEK293 cell line (Homo sapiens, UniProt Q7RTX0+Q8TE23); test: In vitro hT1R2/hT1R3-HEK293 taste receptor activation assay (FLIPR); assay type: cell-based; conditions: Table A; read-out: SWEET EC50
T1 construct: expressed in transfected cells; host or cells: HEK293 derivative stably expressing Gα15 and hT1R2/hT1R3, clone S-9
T1 sequence (Q8TE23 20-839): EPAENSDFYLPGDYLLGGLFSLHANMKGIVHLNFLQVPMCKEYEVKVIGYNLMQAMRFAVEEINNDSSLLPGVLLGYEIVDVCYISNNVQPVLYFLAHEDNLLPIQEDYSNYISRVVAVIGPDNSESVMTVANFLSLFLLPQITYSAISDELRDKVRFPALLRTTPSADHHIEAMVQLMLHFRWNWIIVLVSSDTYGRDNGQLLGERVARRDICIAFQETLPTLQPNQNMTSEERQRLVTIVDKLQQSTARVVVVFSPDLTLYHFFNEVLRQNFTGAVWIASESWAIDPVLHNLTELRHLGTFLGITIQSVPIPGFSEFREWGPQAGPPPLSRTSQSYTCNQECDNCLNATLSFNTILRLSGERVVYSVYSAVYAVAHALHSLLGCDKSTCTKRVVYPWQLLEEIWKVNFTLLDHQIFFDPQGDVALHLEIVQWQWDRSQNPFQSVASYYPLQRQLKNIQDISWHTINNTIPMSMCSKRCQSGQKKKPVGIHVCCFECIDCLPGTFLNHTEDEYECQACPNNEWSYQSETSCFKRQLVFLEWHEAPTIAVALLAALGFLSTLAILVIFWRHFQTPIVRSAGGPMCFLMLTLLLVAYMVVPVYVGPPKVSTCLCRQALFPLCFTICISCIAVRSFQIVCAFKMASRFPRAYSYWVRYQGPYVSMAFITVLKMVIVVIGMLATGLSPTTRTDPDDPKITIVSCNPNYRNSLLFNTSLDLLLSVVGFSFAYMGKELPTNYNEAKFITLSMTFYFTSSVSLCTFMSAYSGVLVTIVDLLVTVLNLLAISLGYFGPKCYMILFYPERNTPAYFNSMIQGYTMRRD
T1 sequence (Q7RTX0 21-852): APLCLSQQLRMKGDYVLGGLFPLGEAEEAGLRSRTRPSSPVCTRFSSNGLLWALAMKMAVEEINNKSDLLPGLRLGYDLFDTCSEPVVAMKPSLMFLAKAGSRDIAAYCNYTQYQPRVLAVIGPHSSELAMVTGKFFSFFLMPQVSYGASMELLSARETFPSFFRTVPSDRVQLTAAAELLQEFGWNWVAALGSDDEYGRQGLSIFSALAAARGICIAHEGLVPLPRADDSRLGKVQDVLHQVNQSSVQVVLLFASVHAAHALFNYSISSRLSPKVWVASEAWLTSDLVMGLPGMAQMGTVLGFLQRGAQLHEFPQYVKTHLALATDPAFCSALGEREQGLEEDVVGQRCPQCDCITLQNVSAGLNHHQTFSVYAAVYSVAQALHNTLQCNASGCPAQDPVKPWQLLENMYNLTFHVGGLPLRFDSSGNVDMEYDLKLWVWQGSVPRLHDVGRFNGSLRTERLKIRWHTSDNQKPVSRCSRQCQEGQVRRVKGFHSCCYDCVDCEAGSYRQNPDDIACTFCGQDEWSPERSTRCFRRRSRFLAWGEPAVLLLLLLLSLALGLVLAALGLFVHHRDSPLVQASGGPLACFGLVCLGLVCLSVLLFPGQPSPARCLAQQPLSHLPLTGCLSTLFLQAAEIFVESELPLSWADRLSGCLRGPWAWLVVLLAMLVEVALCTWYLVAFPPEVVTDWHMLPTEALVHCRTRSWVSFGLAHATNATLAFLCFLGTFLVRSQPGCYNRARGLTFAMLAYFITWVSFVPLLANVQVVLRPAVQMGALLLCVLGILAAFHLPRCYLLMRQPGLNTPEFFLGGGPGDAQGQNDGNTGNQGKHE
Experimental: An HEK293 cell line derivative (Chandrashekar et al., Cell (2000) 100:703-711) that stably expresses Gα15 and hT1R2/hT1R3 (Li et al., Proc Natl Acad Sci USA (2002) 99:4692-4696), see also PCT Publication No. WO 03/001876 A2) was used to identify compounds with sweet taste enhancing properties.
Compounds covered in this document were initially selected based on their activity on the hT1R2/hT1R3-HEK293-Gα15 cell line (Li et al. vide supra). Activity was determined using an automated fluorometric imaging assay on a FLIPR instrument ([…], Molecular Devices, Sunnyvale, Calif.) (designated FLIPR assay). Cells from one clone (designated S-9 cells) were seeded into 384-well plates (at approximately 50,000 cells per well) in a medium containing DMEM Low Glucose (Invitrogen, Carlsbad, Calif.), 10% dialyzed fetal bovine serum (Invitrogen, Carlsbad, Calif.), 100 Units/ml Penicillin G, and 100 μg/ml Streptomycin (Invitrogen, Carlsbad, Calif.) (Li et al. vide supra) see also PCT Publication No. WO 03/001876 A2). S-9 cells were grown for 24 hours at 37° C. S-9 cells were then loaded with the calcium dye Fluo-3AM (Molecular Probes, Eugene, Oreg.), 4 μM in a phosphate buffered saline (D-PBS) (Invitrogen, Carlsbad, Calif.), for 1 hour at room temperature. After replacement with 25 μl D-PBS, stimulation was performed in the FLIPR instrument and at room temperature by the addition of 25 μl D-PBS supplemented with different stimuli at concentrations corresponding to twice the desired final level. Receptor activity was quantified by determining the maximal fluorescence increases (using a 480 nm excitation and 535 nm emission) after normalization to basal fluorescence intensity measured before stimulation.
For dose-responses analysis, stimuli were presented in duplicates at 10 different concentrations ranging from 60 nM to 30 μM. Activities were normalized to the response obtained with 400 mM D-fructose, a concentration that elicits maximum receptor response. EC50s were determined using a non-linear regression algorithm (using a Senomyx, Inc. software), where the Hill slope, bottom asymptotes and top asymptotes were allow to vary. Identical results were obtained when analyzing the dose-response data using commercially available software for non-linear regression analysis such as GraphPad PRISM (San Diego, Calif.).

| Structure (SMILES) | EC50 |
| --- | --- |
| CC(C)CNC(=O)C(C)(C)c1ccc(-c2ccncn2)cc1 [Compound A33] | 5.4 µM |
| CC(C)CNC(=O)C(C)(C)c1ccc(-n2ccnc2)cc1 [Compound A34] | 10.1 µM |
| CC(C)CNC(=O)C(C)(C)c1ccc(-c2cnco2)cc1 [Compound A35] | 11.5 µM |
| CC(C)CNC(=O)C(C)(C)c1ccc(-c2ccccc2)cc1 [Compound A36] | 1.28 µM |
| CC(C)CNC(=O)C(C)(C)c1ccc(-c2cccc(S(C)(=O)=O)c2)cc1 [Compound A38] | 1.49 µM |
| CC(C)CNC(=O)Cc1ccc(-c2ccccc2)cc1 [Compound A39] | 1.54 µM |
| CC[C@@H](C)NC(=O)C(C)(C)c1ccc(-c2cccc(COC)c2)cc1 [Compound A53] | 0.55 µM |
| CC(C)CNC(=O)C(C)(C)c1ccc(-c2cccnc2)cc1 [Compound A56] | 0.77 µM |
| COCc1cccc(-c2ccc(C(C)(C)C(=O)NC(C)C)cc2)c1 [Compound A57] | 0.92 µM |
| CC[C@@H](C)NC(=O)C(C)(C)c1ccc(-c2cncc(COC)c2)cc1 [Compound A58] | 1.05 µM |
| Cc1cscc1-c1ccc(C(C)(C)C(=O)NCC(C)C)cn1 [Compound A59] | 1.05 µM |
| CC[C@H](CO)NC(=O)C(C)(C)c1ccc(-c2ccccc2)cc1 [Compound A60] | 1.1 µM |
| CC(C)(C(=O)NCC(O)c1ccccc1)c1ccc(-c2cncc(C#N)c2)cc1 (centres unmarked) [Compound A61] | 1.17 µM |
| CCC(COC)NC(=O)C(C)(C)c1ccc(-c2cncc(C#N)c2)cc1 (centres unmarked) [Compound A62] | 1.22 µM |
| CC(C)CNC(=O)C(C)(C)c1ccc(-c2ccc(C#N)o2)cc1 [Compound A63] | 1.29 µM |
| CC[C@H](C)NC(=O)C(C)(C)c1ccc(-c2cncc(COC)c2)cc1 [Compound A64] | 1.29 µM |
| CC(C)(C(=O)NCC(O)c1ccco1)c1ccc(-c2cncc(C#N)n2)cc1 (centres unmarked) [Compound A65] | 1.31 µM |
| CC(C)CNC(=O)C(C)(C)c1ccc(-c2coc(C(=O)O)c2)cc1 [Compound A66] | 1.37 µM |
| CC(C)CNC(=O)C(C)(C)c1ccc(-c2ccccc2)c(O)c1 [Compound A67] | 1.42 µM |
| CCOc1cncc(-c2ccc(C(C)(C)C(=O)NCC(C)C)cc2)c1 [Compound A68] | 1.59 µM |
| CCC[C@@H](CO)NC(=O)C(C)(C)c1ccc(-c2cncc(C#N)c2)cc1 [Compound A69] | 1.66 µM |
| COc1cc(C(C)(C)C(=O)NCC(C)C)ccc1-c1ccccc1 [Compound A76] | 0.96 µM |
| CCC(CO)NC(=O)C(C)(C)c1ccc(-c2ccoc2)cc1 (centres unmarked) [Compound A77] | 1.25 µM |

The remaining compounds from weak to strong by EC50, led by results:

| EC50 | Structure (SMILES) |
| --- | --- |
| 0.76 µM | CC(C)CNC(=O)C(C)(C)c1ccc(-c2cccc(C=O)c2)cc1 [Compound A37] |
| 0.75 µM | CC(C)CNC(=O)C(C)(C)c1ccc(-c2cocc2/C=N/O)cc1 [Compound A71] |
| 0.68 µM | CC[C@@H](CO)NC(=O)C(C)(C)c1ccc(-c2cncc(C#N)c2)cc1 [Compound A75] |
| 0.67 µM | CCCNC(=O)C(C)(C)c1ccc(-c2cccc(COC)c2)cc1 [Compound A78] |
| 0.67 µM | CC(C)CNC(=O)C(C)(C)c1ccc(-c2cccc3c2COCOC3)cc1 [Compound A79] |
| 0.67 µM | CC(C)CNC(=O)C(C)(C)c1ccc(-c2cccc(C#N)c2CO)cc1 [Compound A80] |
| 0.67 µM | CC(C)CNC(=O)C(C)(C)c1ccc(-c2cccc(C#N)n2)cc1 [Compound A81] |
| 0.65 µM | CC(C)NC(=O)C(C)(C)c1ccc(-c2cncc(C#N)n2)cc1 [Compound A55] |
| 0.59 µM | CC(C)(C(=O)NCc1ccoc1)c1ccc(-c2cncc(C#N)n2)cc1 [Compound A54] |
| 0.54 µM | COC(=O)c1cncc(-c2ccc(C(C)(C)C(=O)NCC(C)C)cc2)c1 [Compound A73] |
| 0.51 µM | CCC(C)CNC(=O)C(C)(C)c1ccc(-c2cncc(COC)c2)cc1 (centres unmarked) [Compound A70] |
| 0.47 µM | CCCNC(=O)C(C)(C)c1ccc(-c2cncc(C#N)n2)cc1 [Compound A52] |
| 0.41 µM | CC(C)(C(=O)NC1CCC1)c1ccc(-c2cncc(C#N)c2)cc1 [Compound A51] |
| 0.37 µM | CC(C)(C(=O)NC1CCC1)c1ccc(-c2cncc(C#N)n2)cc1 [Compound A49] |
| 0.37 µM | CC[C@@H](C)NC(=O)C(C)(C)c1ccc(-c2cncc(C#N)n2)cc1 [Compound A50] |
| 0.32 µM | CC(C)(C(=O)NC1CC1)c1ccc(-c2cncc(C#N)n2)cc1 [Compound A47] |
| 0.32 µM | CC(C)CNC(=O)C(C)(C)c1ccc(-c2cocc2C#N)cc1 [Compound A48] |
| 0.31 µM | CC(C)[C@H](C)NC(=O)C(C)(C)c1ccc(-c2cncc(C#N)n2)cc1 [Compound A46] |
| 0.27 µM | CC(C)(C(=O)NCC1CC1)c1ccc(-c2cncc(C#N)n2)cc1 [Compound A45] |
| 0.21 µM | CC(C)[C@@H](C)NC(=O)C(C)(C)c1ccc(-c2cncc(C#N)n2)cc1 [Compound A44] |
| 0.18 µM | CC(C)(C(=O)CCc1ccco1)c1ccc(-c2cncc(C#N)c2)cc1 [Compound A72] |
| 0.18 µM | CC(C)(C(=O)NC1CCCCC1)c1ccc(-c2cncc(C#N)c2)cc1 [Compound A86] |
| 0.15 µM | CC[C@@H](C)NC(=O)C(C)(C)c1ccc(-c2cncc(C#N)c2)cc1 [Compound A85] |
| 0.13 µM | CC(C)(C(=O)NC1CCCC1)c1ccc(-c2cncc(C#N)n2)cc1 [Compound A43] |
| 0.11 µM | CCC(C)CNC(=O)C(C)(C)c1ccc(-c2cncc(C#N)c2)cc1 (centres unmarked) [Compound A83] |
| 0.11 µM | CC(C)(C(=O)NCC1CC1)c1ccc(-c2cncc(C#N)c2)cc1 [Compound A84] |
| 0.1 µM | CC(NC(=O)C(C)(C)c1ccc(-c2cncc(C#N)n2)cc1)c1ccco1 (centres unmarked) [Compound A42] |
| 0.05 µM | CCC(C)CNC(=O)C(C)(C)c1ccc(-c2cncc(C#N)n2)cc1 (centres unmarked) [Compound A41] |
| 0.03 µM | CCC(CC)NC(=O)C(C)(C)c1ccc(-c2cncc(C#N)n2)cc1 [Compound A40] |
| 0.03 µM | CC[C@H](C)CNC(=O)C(C)(C)c1ccc(-c2cncc(C#N)n2)cc1 [Compound A82] |
